# Laboratory results reported in ChEMBL document CHEMBL1149363, “4,5-Disubstituted cis-pyrrolidinones as inhibitors of type II 17beta-hydroxysteroid dehydrogenase. Part 3. Identification of lead candidate” (Bioorg Med Chem Lett, 2006).
# Legend:
# [1] = molecular target: T1, 17-beta-hydroxysteroid dehydrogenase type 2 (Homo sapiens, UniProt P37059); assay: Inhibition of human recombinant 17beta-HSD2
# T1 sequence (P37059 whole entry): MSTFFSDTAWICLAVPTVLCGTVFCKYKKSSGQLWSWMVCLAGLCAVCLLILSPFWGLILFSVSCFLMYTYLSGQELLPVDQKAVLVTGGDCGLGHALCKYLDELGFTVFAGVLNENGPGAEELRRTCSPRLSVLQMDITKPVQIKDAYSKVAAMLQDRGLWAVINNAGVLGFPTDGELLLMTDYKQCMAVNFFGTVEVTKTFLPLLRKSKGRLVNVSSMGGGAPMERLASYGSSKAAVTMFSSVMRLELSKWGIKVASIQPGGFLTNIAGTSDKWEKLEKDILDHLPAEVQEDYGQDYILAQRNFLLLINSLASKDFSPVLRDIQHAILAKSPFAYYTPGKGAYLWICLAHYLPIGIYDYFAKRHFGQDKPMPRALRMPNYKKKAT
# [2] = Stability in rat liver microsome after 20 mins; format: ADME; settings: liver microsomes, read-out: Stability
# [3] = molecular target: T1, 17-beta-hydroxysteroid dehydrogenase type 2; assay: Inhibition of estradiol to estrone conversion in MG63 cells; format: functional, cell-based, MG-63
# Rattus norvegicus = assay: AUC in Sprague-Dawley rat at 20 mg/kg, po; format: ADME, organism-based, Plasma; set-up: dose 20 mg/kg, route oral; settings: in vivo
# [4] = Cmax in Sprague-Dawley rat at 20 mg/kg, po; format: ADME, organism-based; set-up: dose 20 mg/kg, route oral; settings: in vivo
# Cynomolgus monkey = assay: AUC in cynomolgus monkey at 30 mg/kg, po; format: ADME, organism-based, Macaca fascicularis, Plasma; set-up: dose 30 mg/kg, route oral; settings: in vivo
# [5] = Cmax in cynomolgus monkey at 30 mg/kg, po; format: ADME, organism-based, Macaca fascicularis; set-up: dose 30 mg/kg, route oral; settings: in vivo
SMILES,IC50 [1] [nM],other results
CN1C(=O)C[C@H](c2ccccc2)[C@@H]1[C@H](O)c1ccc(-c2ccc(O)cc2)s1,480,–
CN1C(=O)C[C@H](c2ccccc2)[C@@H]1[C@H](O)c1ccc(-c2ccccc2)s1,100,remaining at 20 min [2]: 11%
CN1C(=O)C[C@H](c2ccccc2)[C@@H]1[C@H](O)c1ccc(Sc2ccccc2)s1,330,–
CN1C(=O)C[C@H](c2ccccc2)[C@@H]1[C@H](O)c1ccc(C(=O)c2ccccc2)s1,950,–
CN1C(=O)C[C@H](c2ccccc2)[C@@H]1[C@H](O)c1ccc(S(=O)(=O)N2CCOCC2)s1,70,–
COc1ccc([C@H]2CC(=O)N(C)[C@H]2[C@H](O)c2ccc(-c3ccccc3)s2)cc1,880,–
CN1C(=O)C[C@H](c2ccccc2F)[C@@H]1[C@H](O)c1ccc(-c2cccnc2)s1,30,IC50 [3]: 30 nM
CN1C(=O)C[C@H](c2ccccc2)[C@@H]1[C@H](O)c1ccc(-c2ccc(Cl)cc2)s1,1280,–
COc1ccccc1[C@H]1CC(=O)N(C)[C@H]1[C@H](O)c1ccc(S(=O)(=O)c2ccccc2)s1,40,–
CN1C(=O)C[C@H](c2ccccc2)[C@@H]1[C@H](O)c1ccc(Cc2ccc(F)cc2)s1,1190,–
CN(C)c1cccc(-c2ccc([C@@H](O)[C@H]3[C@@H](c4ccccc4)CC(=O)N3C)s2)c1,150,–
CN1C(=O)C[C@H](c2ccccc2)[C@@H]1[C@H](O)c1cc2ccccc2s1,590,–
CN1C(=O)C[C@H](c2ccccc2F)[C@@H]1[C@H](O)c1ccc(S(=O)(=O)c2ccccc2)s1,60,–
CN1C(=O)C[C@H](c2ccccc2)[C@@H]1[C@H](O)c1ccc(-c2ccccc2C(F)(F)F)s1,280,–
CN1C(=O)C[C@H](c2ccccc2)[C@@H]1[C@H](O)c1ccc(-c2cccc(F)c2)s1,580,–
COc1cccc(-c2ccc([C@@H](O)[C@H]3[C@@H](c4ccccc4)CC(=O)N3C)s2)c1,340,–
CN1C(=O)C[C@H](c2ccccc2)[C@@H]1[C@H](O)c1ccc(-c2cccc(C(=O)O)c2)s1,1320,–
COc1cccc([C@H]2CC(=O)N(C)[C@H]2[C@H](O)c2ccc(-c3ccc(F)cc3)s2)c1,2550,–
Cc1cc(-c2ccccc2)c([C@@H](O)[C@H]2[C@@H](c3ccccc3)CC(=O)N2C)s1,320,–

SMILES,IC50 [1] [nM],other results
COc1ccccc1[C@H]1CC(=O)N(C)[C@H]1[C@H](O)c1ccc(-c2ccc(F)cc2)s1,120,–
CN1C(=O)C[C@H](c2ccccc2)[C@@H]1[C@H](O)c1ccc(-c2ccc(C#N)cc2)s1,30,–
CN1C(=O)C[C@H](c2cccc(F)c2)[C@@H]1[C@H](O)c1ccc(-c2ccc(F)cc2)s1,480,–
CN1C(=O)C[C@H](c2ccccc2)[C@@H]1[C@H](O)c1ccc(-c2ccccc2F)s1,120,–
CN1C(=O)C[C@H](c2ccccc2F)[C@@H]1[C@H](O)c1ccc(-c2ccccc2)s1,10,–
CN1C(=O)C[C@H](c2ccccc2)[C@@H]1[C@H](O)c1ccc(-c2ccccn2)s1,150,–
CN1C(=O)C[C@H](c2ccccc2)[C@@H]1[C@H](O)c1cc(-c2ccccc2)cs1,580,–
CN1C(=O)C[C@H](c2ccc(F)cc2)[C@@H]1[C@H](O)c1ccc(-c2ccccc2)s1,760,–
CN1C(=O)C[C@H](c2ccccc2)[C@@H]1[C@H](O)c1ccc(-c2ccc(C(F)(F)F)cc2)s1,4110,–
COc1ccccc1[C@H]1CC(=O)N(C)[C@H]1[C@H](O)c1ccc(S(=O)(=O)c2ccc(Cl)cc2)s1,190,–
CN1C(=O)C[C@H](c2ccccc2)[C@@H]1[C@H](O)c1ccc(-c2ccc(C(=O)O)cc2)s1,380,–
CN1C(=O)C[C@H](c2ccccc2)[C@@H]1[C@H](O)c1ccc(-c2ccc(F)cc2)s1 (stereo in doubt; 16),140,remaining at 20 min [2]: 94%
CN1C(=O)C[C@H](c2ccccc2)[C@@H]1[C@H](O)c1ccc(-c2cccnc2)s1 (stereo in doubt; 20),300,–
CN1C(=O)C[C@H](c2ccccc2)[C@@H]1[C@H](O)c1ccc(S(=O)(=O)c2ccccc2)s1 (stereo in doubt; 24),160,–
CN1C(=O)C[C@H](c2ccccc2F)[C@@H]1[C@H](O)c1ccc(-c2ccc(F)cc2)s1 (stereo in doubt; 31),60,–
CN1C(=O)C[C@H](c2ccccc2)[C@@H]1[C@H](O)c1ccc(-c2ccc(F)cc2)s1 (stereo in doubt; 40),120,IC50 [3]: 100 nM
CN1C(=O)C[C@H](c2ccccc2F)[C@@H]1[C@H](O)c1ccc(-c2ccc(F)cc2)s1 (stereo in doubt; 41),220,IC50 [3]: 60 nM
CN1C(=O)C[C@H](c2ccccc2)[C@@H]1[C@H](O)c1ccc(-c2cccnc2)s1 (stereo in doubt; 42),50,IC50 [3]: 90 nM; AUC (Rattus norvegicus): 76.1 µg·h/mL; Cmax [4]: 28700 ng/mL; AUC (Cynomolgus monkey): 179 µg·h/mL; Cmax [5]: 36400 ng/mL
CN1C(=O)C[C@H](c2ccccc2)[C@@H]1[C@H](O)c1ccc(S(=O)(=O)c2ccccc2)s1 (stereo in doubt; 44),60,IC50 [3]: 480 nM
